Measured values published in US8048825B2, “Haloalkylsulfonanilide derivatives or salt thereof, herbicide comprising the derivatives as active ingredient, and use of the herbicide” (Nihon Nohyaku Co., Ltd., priority 2006, dated 2011).

Experiments:
Scirpus juncoides [1] = test: Herbicidal efficacy on paddy field weeds of pre-emergence stage (Pre), Test Example 1; type: in vivo; settings: 1000 g/ha as active ingredient, examined after 21 days
Outline: (§1)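 Clay-loam pots sown with Scirpus juncoides, covered with soil containing Lindernia procumbens seed, flooded to 5 cm. Next day formulated compound applied dropwise to water at 1000 g/ha a.i. Greenhouse-grown; growth inhibition versus untreated scored 0–5 after 21 days.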

Lindernia procumbens [2] = test: as above; type: in vivo; settings: 1000 g/ha as active ingredient, examined after 21 days
Outline: as §1

Scirpus juncoides [3] = test: Herbicidal effect on paddy field weeds of post-emergence stage (Post), Test Example 2; type: in vivo; settings: one-leaf stage, 1000 g/ha as active ingredient, examined after 21 days
Outline: (§2)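 Scirpus juncoides and Echinochloa crus-galli sown in clay loam, with Lindernia procumbens seed in the soil cover, under 5 cm flooding in greenhouse. At one-leaf stage, 1000 g/ha active ingredient applied to pot water. Efficacy scored visually 0–5 against untreated plants at 21 days after treatment.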

Echinochloa crus-galli = test: as above; type: in vivo; settings: one-leaf stage, 1000 g/ha as active ingredient, examined after 21 days
Outline: as §2

Lindernia procumbens [4] = test: as above; type: in vivo; settings: one-leaf stage, 1000 g/ha as active ingredient, examined after 21 days
Outline: as §2

Compound | Scirpus juncoides pre (herbicidal effect) (Scirpus juncoides [1]) | Lindernia procumbens pre (herbicidal effect) (Lindernia procumbens [2]) | Scirpus juncoides post (herbicidal effect) (Scirpus juncoides [3]) | Echinochloa crus-galli post (herbicidal effect) (Echinochloa crus-galli) | Lindernia procumbens post (herbicidal effect) (Lindernia procumbens [4]) | melting point [°C]
CC1(C2(C)CCN(Cc3ccccc3NS(=O)(=O)C(F)(F)F)C(=O)O2)CC1 (stereo not shown) [Compound 1-371] | 5 (100% herbicidal effect, phytotoxicity) | 5 (100% herbicidal effect, phytotoxicity) | 4 (90%-99% herbicidal effect, phytotoxicity) | 4 (90%-99% herbicidal effect, phytotoxicity) | 5 (100% herbicidal effect, phytotoxicity) | 
CCOC(=O)N(c1ccccc1CN1CCC(C)(C2(C)CC2)OC1=O)S(=O)(=O)C(F)(F)F (stereo not shown) [Compound 1-373] | 5 (100% herbicidal effect, phytotoxicity) | 5 (100% herbicidal effect, phytotoxicity) | 4 (90%-99% herbicidal effect, phytotoxicity) | 4 (90%-99% herbicidal effect, phytotoxicity) | 5 (100% herbicidal effect, phytotoxicity) | 
CC(C)COC(=O)N(c1ccccc1CN1CCC(C)(C2(C)CC2)OC1=O)S(=O)(=O)C(F)(F)F (stereo not shown) [Compound 1-376] | 5 (100% herbicidal effect, phytotoxicity) | 5 (100% herbicidal effect, phytotoxicity) | 4 (90%-99% herbicidal effect, phytotoxicity) | 4 (90%-99% herbicidal effect, phytotoxicity) | 5 (100% herbicidal effect, phytotoxicity) | 
CC1(C2CCC2)CCN(Cc2ccccc2NS(=O)(=O)C(F)(F)F)C(=O)O1 (stereo not shown) [Compound 1-382] | 5 (100% herbicidal effect, phytotoxicity) | 5 (100% herbicidal effect, phytotoxicity) | 4 (90%-99% herbicidal effect, phytotoxicity) | 4 (90%-99% herbicidal effect, phytotoxicity) | 5 (100% herbicidal effect, phytotoxicity) | 
CCOC(=O)N(c1ccccc1CN1CCC(C)(C2CCC2)OC1=O)S(=O)(=O)C(F)(F)F (stereo not shown) [Compound 1-384] | 5 (100% herbicidal effect, phytotoxicity) | 5 (100% herbicidal effect, phytotoxicity) | 4 (90%-99% herbicidal effect, phytotoxicity) | 4 (90%-99% herbicidal effect, phytotoxicity) | 5 (100% herbicidal effect, phytotoxicity) | 
CC(C)COC(=O)N(c1ccccc1CN1CCC(C)(C2CCC2)OC1=O)S(=O)(=O)C(F)(F)F (stereo not shown) [Compound 1-387] | 5 (100% herbicidal effect, phytotoxicity) | 5 (100% herbicidal effect, phytotoxicity) | 5 (100% herbicidal effect, phytotoxicity) | 5 (100% herbicidal effect, phytotoxicity) | 5 (100% herbicidal effect, phytotoxicity) | 
CC(C)(C)COC(=O)N(c1ccccc1CN1CCC(C)(C2CCC2)OC1=O)S(=O)(=O)C(F)(F)F (stereo not shown) [Compound 1-388] | 5 (100% herbicidal effect, phytotoxicity) | 5 (100% herbicidal effect, phytotoxicity) | 4 (90%-99% herbicidal effect, phytotoxicity) | 5 (100% herbicidal effect, phytotoxicity) | 5 (100% herbicidal effect, phytotoxicity) | 
COC(=O)N(c1ccccc1CN1CCC(C)(c2ccccc2C(F)(F)F)OC1=O)S(=O)(=O)C(F)(F)F (stereo not shown) [Compound 1-394] | 5 (100% herbicidal effect, phytotoxicity) | 5 (100% herbicidal effect, phytotoxicity) | 4 (90%-99% herbicidal effect, phytotoxicity) | 4 (90%-99% herbicidal effect, phytotoxicity) | 5 (100% herbicidal effect, phytotoxicity) | 
CCOC(=O)N(c1ccccc1CN1CCC(C)(c2ccccc2C(F)(F)F)OC1=O)S(=O)(=O)C(F)(F)F (stereo not shown) [Compound 1-395] | 5 (100% herbicidal effect, phytotoxicity) | 5 (100% herbicidal effect, phytotoxicity) | 4 (90%-99% herbicidal effect, phytotoxicity) | 4 (90%-99% herbicidal effect, phytotoxicity) | 5 (100% herbicidal effect, phytotoxicity) | 
CCOC(=O)N(c1ccccc1CN1CCC(C)(c2ccccc2C)OC1=O)S(=O)(=O)C(F)(F)F (stereo not shown) [Compound 1-406] | 5 (100% herbicidal effect, phytotoxicity) | 5 (100% herbicidal effect, phytotoxicity) | 4 (90%-99% herbicidal effect, phytotoxicity) | 5 (100% herbicidal effect, phytotoxicity) | 5 (100% herbicidal effect, phytotoxicity) | 
CCC1(C(F)(F)F)CCN(Cc2ccccc2N(C(=O)OCCCl)S(=O)(=O)C(F)(F)F)C(=O)O1 (stereo not shown) [Compound 1-415] | 5 (100% herbicidal effect, phytotoxicity) | 5 (100% herbicidal effect, phytotoxicity) | 4 (90%-99% herbicidal effect, phytotoxicity) | 5 (100% herbicidal effect, phytotoxicity) | 5 (100% herbicidal effect, phytotoxicity) | 
CCC1(CC(C)C)CCN(Cc2ccccc2NS(=O)(=O)C(F)(F)F)C(=O)O1 (stereo not shown) [Compound 1-417] | 5 (100% herbicidal effect, phytotoxicity) | 5 (100% herbicidal effect, phytotoxicity) | 4 (90%-99% herbicidal effect, phytotoxicity) | 4 (90%-99% herbicidal effect, phytotoxicity) | 5 (100% herbicidal effect, phytotoxicity) | 
CC1(C)CCN(Cc2ccccc2N(C(=O)Oc2ccccc2)S(=O)(=O)C(F)(F)F)C(=O)O1 [Compound 1-506] | 5 (100% herbicidal effect, phytotoxicity) | 5 (100% herbicidal effect, phytotoxicity) | 4 (90%-99% herbicidal effect, phytotoxicity) | 4 (90%-99% herbicidal effect, phytotoxicity) | 5 (100% herbicidal effect, phytotoxicity) | 
CC1(C)COC(=S)N(Cc2ccccc2NS(=O)(=O)C(F)(F)F)C1 [Compound No. 1-34, 5,5-dimethyl-3-[2-(trifluoromethanesulfonylamino)benzyl]-[1,3]-oxazinan-2-thione] | 4 (90%-99% herbicidal effect, phytotoxicity) | 4 (90%-99% herbicidal effect, phytotoxicity) | 4 (90%-99% herbicidal effect, phytotoxicity) |  |  | 129.9
O=C1OC(c2ccccc2)CCN1Cc1ccccc1NS(=O)(=O)C(F)(F)F (stereo not shown) [Compound No. 1-239, 6-phenyl-3-[2-(trifluoromethanesulfonylamino)benzyl]-[1,3]-oxazinan-2-one] |  | 5 (100% herbicidal effect, phytotoxicity) | 4 (90%-99% herbicidal effect, phytotoxicity) |  |  | 152
CCOCN(c1ccccc1CN1CCC(c2ccccc2)OC1=O)S(=O)(=O)C(F)(F)F (stereo not shown) [Compound No. 1-248, 6-phenyl-3-{2-[N-(ethoxymethyl)-N-(trifluoromethanesulfonyl)amino]benzyl)-[1,3]-oxazinan-2-one] |  |  |  |  |  | 115.6
